Source: publication PMC4815915 (Bioorganic & medicinal chemistry letters, 2015)
One block for each compound: values may come before it.

Assays:
[1] = tested on: rat microglia TXB2 generation; conditions: read-out: TXB2 generation apparent IC50; cited from earlier work
[2] = tested on: Plasmodium falciparum 3D7 strain; experiment: In vitro antiplasmodial activity against chloroquine-susceptible 3D7 strain; format: cell-based

SMILES: CC(C(=O)O)c1ccc(-c2ccccc2)c(F)c1 (stereo not drawn) [flurbiprofen]
IC50 [1]: 100 nM

SMILES: [C-]#[N+]C(C)(C)C[C@@H]1C[C@H](C)[C@H]2CC[C@H](C)[C@@]3([N+]#[C-])CCC(=C)[C@@H]1[C@H]23 [Compound 3, 8,15-diisocyano-11(20)-amphilectene]
Fold more active than the standard drug CQ (3D7) ([2]; antiplasmodial IC50 compared with chloroquine): 5.5 times

IC50 ([2]; Plasmodium falciparum, 3D7, read-out: 3D7 IC50 ± SE): 6.6 ± 0.0008 nM
SMILES: CCN(CC)CCCC(C)Nc1ccnc2cc(Cl)ccc12 (stereo not drawn) [CQ, chloroquine]
